Values quoted from earlier work, collected in patent publication US20140234405A1 (priority 2013, published 2014).
No end group written: not given here.

Tests used:
gastrin = settings: 90 mg/day for 6 years or greater; cited from earlier work
type 2 diabetes = settings: 12 weeks, cited from earlier work
[1] = test system: human pancreatic ductal tissue; settings: in vitro, without epidermal growth factor; cited from earlier work
beta cell mass = settings: after infusion of gastrin in rats; cited from earlier work

Cc1c(OCC(F)(F)F)ccnc1C[S+]([O-])c1nc2ccccc2[nH]1 (stereo not shown) [Lansoprazole, 1H-Benzimidazole,2-[[[3-methyl-4-(2,2,2-trifluoroethoxy)-2-pyridinyl]methyl]sulfinyl]-2-[[[3-Methyl-4-(2,2,2-trifluoroethoxy)-2-pyridyl]-methyl]sulfinyl]benzimidazole]
gastrin levels relative to normal (gastrin): ~7 fold | safety profile (gastrin): sustained safety profile

COc1ccc2nc([S@@+]([O-])Cc3ncc(C)c(OC)c3C)[nH]c2c1 [esomeprazole]
insulin secretion, glycaemic control, cardiovascular disease biomarkers (type 2 diabetes; patients with type 2 diabetes): did not improve | change in insulin AUC (type 2 diabetes; control group had 16.3% reduction): no decline in insulin AUC | increase in area under the curve (AUC) of gastrin (type 2 diabetes; 20 type 2 diabetes patients, 40 mg): 9 fold

gastrin: gastrointestinal hormone demonstrated to result in new beta cell formation (QGPWLEEEEEAYGWMDF; ends and bridges not checked; UniProt P01350 76-92, looked up)
beta cell neogenesis from human pancreatic ductal tissue [1]: induce beta cell neogenesis | beta cell mass (beta cell mass): doubling beta cell mass
